{"source": "ChEMBL document CHEMBL1201862", "about": "“PubChem BioAssay data set” (2004)", "key": {"[1]": {"test": "ZM109 Env clade C HIV-1 fusion inhibitors, dose response, HeLa effector, CEM target cells, luciferase, cherry-pick (AID 652058)", "assay_type": "functional, cell-based"}, "[2]": {"test": "inhibitors of clade B AD8 Env fusion, dose response, cell-based, cherry-pick (AID 652062);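 note: potency is for inhibitors of fusion seen as a drop in luminescence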", "assay_type": "functional"}, "[3]": {"test": "off-target signal loss in HeLa-CEM21 co-culture – HeLa F-luc CTL cells, cherry-picked, counter-screen for HIV-1 Env fusion inhibitor project, dose response (AID 652040);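 note: potency for signal decrease marking cytotoxic or nonspecific inhibition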", "assay_type": "functional, cell-based"}, "[4]": {"test": "inhibitors of HIV Env-driven cell fusion, dose response, cherry-pick (AID 652057)", "assay_type": "functional, cell-based"}, "[5]": {"target": "T1, RNA-binding protein pos-1 (Caenorhabditis elegans, UniProt G5EF15)", "T1 sequence (G5EF15 whole entry)": "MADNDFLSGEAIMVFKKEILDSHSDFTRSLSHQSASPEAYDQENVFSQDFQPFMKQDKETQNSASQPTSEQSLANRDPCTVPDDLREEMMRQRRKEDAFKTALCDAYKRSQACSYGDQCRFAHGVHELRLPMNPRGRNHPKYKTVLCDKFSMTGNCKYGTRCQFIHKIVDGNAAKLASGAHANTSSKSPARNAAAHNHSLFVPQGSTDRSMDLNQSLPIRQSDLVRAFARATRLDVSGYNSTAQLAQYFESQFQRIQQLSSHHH", "test": "inhibitors of POS-1/mex-3 RNA binding, dose response, biochemical, fluorescence polarization (AID 1964);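 note: purified POS-1 fused to maltose binding protein made in E. coli; potency of compounds blocking POS-1 binding to fluorescent RNA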"}, "[6]": {"target": "T2, Zinc finger protein mex-5 (Caenorhabditis elegans, UniProt Q9XUB2)", "T2 sequence (Q9XUB2 whole entry)": "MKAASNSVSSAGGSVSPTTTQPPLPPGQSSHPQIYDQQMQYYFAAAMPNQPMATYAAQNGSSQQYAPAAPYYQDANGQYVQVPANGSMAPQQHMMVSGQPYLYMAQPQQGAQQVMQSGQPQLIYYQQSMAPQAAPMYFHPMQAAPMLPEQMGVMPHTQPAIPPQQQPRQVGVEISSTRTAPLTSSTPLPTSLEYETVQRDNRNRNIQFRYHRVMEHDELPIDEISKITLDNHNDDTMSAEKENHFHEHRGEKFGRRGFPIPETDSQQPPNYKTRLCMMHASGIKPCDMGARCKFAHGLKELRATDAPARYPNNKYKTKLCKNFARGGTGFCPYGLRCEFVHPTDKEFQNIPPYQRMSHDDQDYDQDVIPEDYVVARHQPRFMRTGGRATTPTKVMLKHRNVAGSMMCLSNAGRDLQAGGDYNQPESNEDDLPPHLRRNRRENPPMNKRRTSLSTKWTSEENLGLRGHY", "test": "MEX-5/TCR-2 RNA interaction inhibitors, dose response, biochemical, C. elegans, fluorescence polarization (AID 1960)"}, "[7]": {"target": "T3, Short transient receptor potential channel 4 (Mus musculus, UniProt Q9QUQ5)", "T3 sequence (Q9QUQ5 whole entry)": "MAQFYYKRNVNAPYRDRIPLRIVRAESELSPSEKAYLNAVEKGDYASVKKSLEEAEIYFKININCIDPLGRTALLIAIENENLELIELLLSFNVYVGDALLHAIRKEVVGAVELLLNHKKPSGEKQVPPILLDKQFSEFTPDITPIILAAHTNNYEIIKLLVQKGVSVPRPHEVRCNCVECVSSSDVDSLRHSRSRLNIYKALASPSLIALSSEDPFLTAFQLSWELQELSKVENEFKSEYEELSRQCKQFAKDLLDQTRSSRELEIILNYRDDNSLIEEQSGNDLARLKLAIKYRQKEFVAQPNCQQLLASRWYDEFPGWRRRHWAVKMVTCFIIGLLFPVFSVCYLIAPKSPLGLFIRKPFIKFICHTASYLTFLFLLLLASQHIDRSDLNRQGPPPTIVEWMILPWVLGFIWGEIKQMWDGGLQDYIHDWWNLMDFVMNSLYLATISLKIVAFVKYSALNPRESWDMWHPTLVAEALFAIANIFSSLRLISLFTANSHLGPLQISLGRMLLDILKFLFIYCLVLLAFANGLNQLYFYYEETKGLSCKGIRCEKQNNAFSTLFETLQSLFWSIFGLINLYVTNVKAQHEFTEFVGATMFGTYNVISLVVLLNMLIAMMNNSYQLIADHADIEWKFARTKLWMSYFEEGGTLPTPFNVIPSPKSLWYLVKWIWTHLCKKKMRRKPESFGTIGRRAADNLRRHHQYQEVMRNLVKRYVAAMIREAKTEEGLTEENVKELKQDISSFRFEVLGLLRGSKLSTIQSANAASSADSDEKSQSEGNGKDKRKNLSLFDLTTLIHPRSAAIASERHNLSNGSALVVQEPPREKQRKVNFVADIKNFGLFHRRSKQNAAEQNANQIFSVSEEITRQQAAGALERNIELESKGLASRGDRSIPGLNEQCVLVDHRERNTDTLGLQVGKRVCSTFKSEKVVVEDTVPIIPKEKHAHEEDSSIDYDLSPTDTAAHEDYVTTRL", "test": "mouse TRPC4 channel activators, dose response, cell-based, HEK293 TRPC4/mu-opioid, Fluo-4 calcium (AID 434937)", "assay_type": "functional"}, "Fatty acid synthase [8]": {"target": "T4, Fatty acid synthase (Homo sapiens, UniProt P49327)", "T4 sequence (P49327 whole entry, the tested form may be a part)": "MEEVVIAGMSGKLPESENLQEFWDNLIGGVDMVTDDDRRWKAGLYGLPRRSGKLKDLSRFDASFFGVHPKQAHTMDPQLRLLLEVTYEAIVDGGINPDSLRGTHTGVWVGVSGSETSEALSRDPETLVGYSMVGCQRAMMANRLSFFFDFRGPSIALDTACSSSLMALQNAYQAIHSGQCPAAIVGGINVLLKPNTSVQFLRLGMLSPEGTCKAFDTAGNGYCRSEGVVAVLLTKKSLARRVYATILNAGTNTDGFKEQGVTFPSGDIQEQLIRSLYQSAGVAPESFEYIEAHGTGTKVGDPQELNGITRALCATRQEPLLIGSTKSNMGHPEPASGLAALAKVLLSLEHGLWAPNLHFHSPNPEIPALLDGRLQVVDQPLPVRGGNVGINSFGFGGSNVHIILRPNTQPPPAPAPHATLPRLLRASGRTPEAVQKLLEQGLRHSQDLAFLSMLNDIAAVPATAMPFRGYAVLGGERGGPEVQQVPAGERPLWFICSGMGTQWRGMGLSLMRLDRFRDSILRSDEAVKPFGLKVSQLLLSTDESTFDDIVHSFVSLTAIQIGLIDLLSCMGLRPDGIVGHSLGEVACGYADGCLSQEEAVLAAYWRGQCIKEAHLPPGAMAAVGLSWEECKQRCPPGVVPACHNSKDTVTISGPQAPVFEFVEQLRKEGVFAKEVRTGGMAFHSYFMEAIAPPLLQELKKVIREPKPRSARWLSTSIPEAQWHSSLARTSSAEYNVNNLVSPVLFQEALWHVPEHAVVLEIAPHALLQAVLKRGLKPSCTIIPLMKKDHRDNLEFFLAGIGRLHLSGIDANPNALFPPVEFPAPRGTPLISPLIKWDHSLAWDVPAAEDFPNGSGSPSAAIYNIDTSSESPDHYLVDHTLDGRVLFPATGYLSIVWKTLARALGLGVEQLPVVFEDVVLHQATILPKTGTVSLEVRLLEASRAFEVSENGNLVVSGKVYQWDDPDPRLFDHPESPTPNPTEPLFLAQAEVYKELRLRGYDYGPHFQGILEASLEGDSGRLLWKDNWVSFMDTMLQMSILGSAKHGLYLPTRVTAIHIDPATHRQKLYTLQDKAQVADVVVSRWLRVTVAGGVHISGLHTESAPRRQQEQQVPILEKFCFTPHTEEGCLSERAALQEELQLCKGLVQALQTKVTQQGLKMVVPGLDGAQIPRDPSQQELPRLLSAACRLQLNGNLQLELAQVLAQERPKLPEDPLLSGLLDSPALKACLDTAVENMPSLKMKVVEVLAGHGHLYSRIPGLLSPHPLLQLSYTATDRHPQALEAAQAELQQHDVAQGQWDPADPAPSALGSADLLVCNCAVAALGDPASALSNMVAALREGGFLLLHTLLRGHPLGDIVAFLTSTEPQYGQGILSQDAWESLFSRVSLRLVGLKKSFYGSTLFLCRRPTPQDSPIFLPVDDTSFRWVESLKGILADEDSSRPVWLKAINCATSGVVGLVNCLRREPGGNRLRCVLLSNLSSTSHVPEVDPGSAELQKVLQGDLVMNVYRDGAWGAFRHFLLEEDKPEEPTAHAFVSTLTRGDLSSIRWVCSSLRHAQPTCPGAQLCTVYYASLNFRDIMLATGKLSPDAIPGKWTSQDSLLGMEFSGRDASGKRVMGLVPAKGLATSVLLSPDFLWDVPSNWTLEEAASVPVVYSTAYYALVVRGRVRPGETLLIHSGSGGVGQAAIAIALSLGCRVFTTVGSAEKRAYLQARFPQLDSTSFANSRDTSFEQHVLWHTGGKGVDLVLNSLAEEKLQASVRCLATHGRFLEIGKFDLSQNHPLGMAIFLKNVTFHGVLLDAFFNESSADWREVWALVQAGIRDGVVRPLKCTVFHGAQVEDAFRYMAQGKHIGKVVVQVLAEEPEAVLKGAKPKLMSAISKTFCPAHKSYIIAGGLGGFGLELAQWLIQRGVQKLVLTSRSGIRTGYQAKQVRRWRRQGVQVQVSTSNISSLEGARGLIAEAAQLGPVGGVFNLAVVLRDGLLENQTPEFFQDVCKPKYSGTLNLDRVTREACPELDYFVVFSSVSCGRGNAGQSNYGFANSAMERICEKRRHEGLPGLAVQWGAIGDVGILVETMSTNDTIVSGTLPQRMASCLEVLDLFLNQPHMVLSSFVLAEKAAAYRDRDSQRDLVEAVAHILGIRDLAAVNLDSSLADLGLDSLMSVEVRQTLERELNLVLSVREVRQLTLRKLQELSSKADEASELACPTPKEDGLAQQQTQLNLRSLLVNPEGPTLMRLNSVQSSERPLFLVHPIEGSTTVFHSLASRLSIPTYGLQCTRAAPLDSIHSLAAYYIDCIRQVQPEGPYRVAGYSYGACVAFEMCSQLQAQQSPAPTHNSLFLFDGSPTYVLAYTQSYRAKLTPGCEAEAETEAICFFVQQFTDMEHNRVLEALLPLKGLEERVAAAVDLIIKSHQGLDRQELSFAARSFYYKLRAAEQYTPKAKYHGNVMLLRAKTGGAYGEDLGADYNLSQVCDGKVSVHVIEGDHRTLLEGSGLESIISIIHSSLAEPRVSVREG", "test": "FAS thioesterase domain inhibitors, dose response, biochemical, endpoint fluorescence intensity, uHTS hits (AID 624327);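 note: fluorescence from hydrolysis of an O-methyl fluorescein acyl ester substrate by the enzyme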", "assay_type": "functional"}, "Fatty acid synthase [9]": {"target": "T4, Fatty acid synthase", "test": "FAS thioesterase domain inhibitors, dose response, biochemical, kinetic fluorescence intensity (AID 624326);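 note: rate of fluorescence rise from hydrolysis of a fluorogenic O-methyl fluorescein ester substrate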", "assay_type": "functional"}, "HEK293": {"test_system": "HEK293", "test": "inhibitors of LMP1-driven NF-kB reporter, dose response, cell-based, HEK293, luciferase, cherry-pick (AID 588343)", "assay_type": "functional", "details": "Homo sapiens"}}, "note": "Calls of active or inactive are those of the source."}
{"smiles": "Cc1ccc2cc(C#N)c(NCCNC(=O)C3CCC3)nc2c1C", "values": [{"measurement": "AC50", "setting": "[1]", "result": "9.78 µM (active)"}, {"measurement": "AC50", "setting": "[2]", "result": "8.62 µM (active)"}, {"measurement": "AC50", "setting": "[3]", "result": "11 µM (active)"}, {"measurement": "AC50", "setting": "[4]", "result": "9.91 µM (active)"}]}
{"smiles": "COC(=O)C1=NN(C(=O)c2ccc(C)cc2)C(O)(c2ccc(Cl)cc2)C1", "note": "(centres undefined)", "values": [{"measurement": "EC50", "setting": "[5]", "result": "> 300 µM (not active)"}, {"measurement": "EC50", "setting": "[6]", "result": "37.7 µM (inconclusive)"}, {"measurement": "EC50", "setting": "[7]", "result": "6.68 µM (active)"}]}
{"smiles": "Cc1cc(C)c(NC(=O)COC(=O)c2cc([N+](=O)[O-])ccc2N2CCOCC2)c(C)c1", "values": [{"measurement": "IC50", "setting": "Fatty acid synthase [8]", "result": "6.16 µM (active)"}, {"measurement": "IC50", "setting": "Fatty acid synthase [9]", "result": "10.8 µM (active)"}]}
{"smiles": "Cc1cccc(CN2CCN(Cc3ccc(Cl)cc3)CC2)c1", "values": [{"measurement": "AC50", "setting": "HEK293", "result": "53.2 µM (active)"}]}
{"smiles": "COc1ccc(CCNc2oc(-c3cccc4ccccc34)nc2P(=O)(OC)OC)cc1OC", "values": [{"measurement": "AC50", "setting": "[1]", "result": "7.26 µM (active)"}, {"measurement": "AC50", "setting": "[2]", "result": "1.1 µM (active)"}, {"measurement": "AC50", "setting": "[3]", "result": "10.6 µM (active)"}, {"measurement": "AC50", "setting": "[4]", "result": "5 µM (active)"}]}
{"smiles": "OCCN1CCN(Cc2cc(Br)cc(Br)c2O)CC1", "values": [{"measurement": "EC50", "setting": "[7]", "result": "0.0293 µM (active)"}]}
{"smiles": "N#Cc1c(N)[nH]c(C(=O)c2ccccc2)c1-c1ccc(Cl)cc1", "values": [{"measurement": "IC50", "setting": "Fatty acid synthase [8]", "result": "7.39 µM (active)"}, {"measurement": "IC50", "setting": "Fatty acid synthase [9]", "result": "13.3 µM (active)"}]}
{"smiles": "CCOC(=O)[C@@H]1[C@H]2COc3ccc(Br)cc3[C@@H]2N2C(=O)N(c3ccc(F)cc3)C(=O)[C@@]12C", "values": [{"measurement": "AC50", "setting": "[1]", "result": "5.78 µM (active)"}, {"measurement": "AC50", "setting": "[2]", "result": "4.5 µM (active)"}, {"measurement": "AC50", "setting": "[3]", "result": "3.77 µM (active)"}, {"measurement": "AC50", "setting": "[4]", "result": "1.72 µM (active)"}]}
{"smiles": "CCN(C[C@H]1N[C@@](CC)(C(=O)OC)[C@H]2C(=O)N(Cc3ccccc3)C(=O)[C@@H]12)C(=O)Nc1ccc(OC)cc1", "values": [{"measurement": "AC50", "setting": "[1]", "result": "0.581 µM (active)"}, {"measurement": "AC50", "setting": "[2]", "result": "0.993 µM (active)"}, {"measurement": "AC50", "setting": "[3]", "result": "1.23 µM (active)"}, {"measurement": "AC50", "setting": "[4]", "result": "0.421 µM (active)"}]}
{"smiles": "CC(=O)c1c(O)cc2c3c1OC(C)(C)C1CCC(C)(CC31)O2", "note": "(centres undefined)", "values": [{"measurement": "AC50", "setting": "[1]", "result": "1.07 µM (active)"}, {"measurement": "AC50", "setting": "[2]", "result": "9.92 µM (active)"}, {"measurement": "AC50", "setting": "[3]", "result": "13.1 µM (active)"}, {"measurement": "AC50", "setting": "[4]", "result": "5.16 µM (active)"}]}
